Measurements published in patent publication US20090012168A1, “ADIPONECTION INDUCERS OR SECRETAGOGUES” (AJINOMOTO CO., INC., priority 2004, published 2009).

Experiments:
3T3-L1 cells = test: Adiponectin concentration in culture supernatant of 3T3-L1 cells (LANCE method); type: cell-based, mouse; conditions: for Concentration of adiponectin in the case of adding one kind of amino acids to Zero medium: 3T3-L1 culture supernatant after 72 hour incubation, amino acid at fourfold of that in Full medium, average values, N=2, Zero medium 61; for concentration of adiponectin in mediums without the amino acid: amino acid removed from Full medium; for concentration of adiponectin in mediums without the amino acid / concentration of adiponectin in the culture supernatant in mediums to which the amino acid was added: 72 hour incubation; for production of adiponectin as compared with Zero medium (FIG. 1): 3T3-L1 cells, 72 hours, amino acid concentration changed in Zero medium, mixture equimolar; for concentration of adiponectin in the culture supernatant in mediums to which the amino acid was added: amino acid added to Zero medium at fourfold of Full medium
Protocol: 3T3-L1 cells were suspended in D-MEM medium containing 10% fetal bovine serum to become 1.5×10^5 cells/mL and seeded. After the incubation in the CO2 incubator at 37° C. for 72 hours, the medium was removed by suction. Then, the medium was exchanged for D-MEM medium containing 10 ug/mL of insulin, 1 uM of dexamethazone, 0.5 mM of IBMX (3-isobutyl-1-methylxanthine) and 10% fetal bovine serum, and further incubated in the CO2 incubator at 37° C. for 48 hours. After removing the medium, it was further exchanged for the medium wherein the concentrations of amino acids were changed, with addition of 10% dialyzed fetal bovine serum (F-0392, by SIGMA), and further incubated in CO2 incubator at 37° C. for 72 hours.
D-MEM medium contains, as amino acids, 30 mg/L of glycine (Gly); 35.6 mg/L of alanine (Ala); 42 mg/L of serine (Ser); 95 mg/L of threonine (Thr); 63 mg/L of cysteine (Cys)/2HCl; 30 mg/L of methionine (Met); 1168 mg/L of glutamine (Gln); 52.8 mg/L of asparagine (Asn); 58.8 mg/L of glutaminic acid (Glu); 106.4 mg/L of asparaginic acid (Asp); 94 mg/L of valine (Val); 105 mg/L of leucine (Leu); 105 mg/L of isoleucine (Ile); 66 mg/L of phenylalanine (Phe); 208 mg/L of tylosin (Tyr)/2Na/2H2O; 16 mg/L of triptophan (Trp); 146 mg/L of lysine (Lys)/HCl; 84 mg/L of arginine (Arg); 42 mg/L of histidine (His)/HCl/H2O; and 46 mg/L of proline (Pro). Regarding the expression of the mediums, for example, Δ Met indicates the medium having the same compositions of vitamins and salts as those of D-MEM medium and said medium wherein one kind of amino acids, methionine (Met), is removed. Full medium indicates the one containing all amino acids, and Zero medium indicates the one removing all amino acids.
Eu (Europium) chelate labeling of anti-mouse adiponectin antibody (AF1119, by R&D Systems) was conducted by using 100 ug of LANCE Eu-W1024-ITC chelate (AD0013 by Perkin Elmer), which is a Eu chelate labeling reagent, to 200 μg of the antibody in accordance with the method described in the manual. Biotin labeling of anti-mouse adiponectin antibody (AF1119, by R&D Systems) was conducted by using 26.8 ug of NHS-Biotin (1418165, Biotin Labeling Kit, by Boehringer Mannheim), which is a biotin labeling reagent, to 100 μg of the antibody in accordance with the method described in the manual.
The amount of adiponectin in the cell culture supernatant was measured as follows. The culture supernatant was diluted tenfold with TBS (Tris-buffered saline; 20 mM Tris-HCl pH7.4, 0.15M NaCl) containing 0.1% bovine serum albumin (BSA), and 10 μL thereof was mixed with 300 ng/mL of the Eu chelate labeled antibody, 300 ng/mL of the biotin labeled antibody and 10 μL of a solution (TBS containing 0.1% BSA) containing 2.5 μg/mL of Streptavidin-APC (AD0201, by Perkin Elmer) on the 384-well plate. After preserving the mixture at room temperature for 2 days, LANCE count was measured by using ARVO-SX multilabel counter (by Perkin Elmer) in accordance with the protocol of the LANCE method. At the same time, the mouse adiponectin preparation (8060-K, by LINCO) was also measured, and the concentration of adiponectin in the culture supernatant was calculated from the calibration curve of the preparation.

ob/ob mice [1] = test: Adiponectin concentration in plasma of ob/ob mice given experimental diets; type: in vivo, mouse; conditions: experimental diet containing 4%, 17 days
Text: Male ob/ob mice of 5 week old (purchased from Charles River Laboratories Japan, Inc.) were preliminarily fed by a basic diet containing 25% by weight ratio of fats. Then, they were divided into groups so that their body weights and non-fasting blood glucose were the same between the groups. The used basic diet contained 17% by weight of casein and 48% by weight of starch in addition to 25% of lipids. Then, an experimental diet (containing 25% of fats) containing 4% of BCAA (its composition is a mixture of Leu, Ile and Val; their weight ratio is […]=1:1:1), Leu or Ile was provided to them. The control group was given an experimental diet wherein casein was increased by 4% from the basic diet instead of the amino acids (Control Group). […] On the 17th day of provision of the experimental diet, their blood was collected and their blood glucose was measured to determine the adiponectin concentration in plasma. […] After extracting RNA, adiponectin mRNA was determined. The blood glucose of a mouse was measured by collecting 6 μL of its blood from the caudal vein and using a Fuji […] system (produced by FUJIFILM Medical Co., Ltd.). The adiponectin concentration in plasma was measured by the following method. […] After leaving the mixture at room temperature for 2 days, LANCE count was measured by using ARVO-SX multilabel counter (by Perkin Elmer) in accordance with the protocol of the LANCE method. […]

adiponectin mRNA = test: Adiponectin mRNA in subcutaneous fats of ob/ob mice given experimental diets; type: in vivo, mouse; conditions: 23rd day of 4% diet, amended with β-actin mRNA
Text: Male ob/ob mice of 5 week old (purchased from Charles River Laboratories Japan, Inc.) were preliminarily fed by a basic diet containing 25% by weight ratio of fats. Then, they were divided into groups so that their body weights and non-fasting blood glucose were the same between the groups. The used basic diet contained 17% by weight of casein and 48% by weight of starch in addition to 25% of lipids. Then, an experimental diet (containing 25% of fats) containing 4% of BCAA (its composition is a mixture of Leu, Ile and Val; their weight ratio is Leu:Ile:Val=1:1:1), Leu or Ile was provided to them. The control group was given an experimental diet wherein casein was increased by 4% from the basic diet instead of the amino acids (Control Group). As for the composition of each experimental diet, the starch content was adjusted so that each calorie per unit weight became the same. On the 17th day of provision of the experimental diet, their blood was collected and their blood glucose was measured to determine the adiponectin concentration in plasma. Further, on the 23rd day after starting the provision of the experimental food, autopsy was conducted, and subcutaneous fats were collected to freeze for preservation. After extracting RNA, adiponectin mRNA was determined. […]

ob/ob mice [2] = test: Non-fasting blood glucose of ob/ob mice given experimental diets; type: in vivo, mouse; conditions: experimental diet containing 4%, 17 days
Text: Male ob/ob mice of 5 week old (purchased from Charles River Laboratories Japan, Inc.) were preliminarily fed by a basic diet containing 25% by weight ratio of fats. Then, they were divided into groups so that their body weights and non-fasting blood glucose were the same between the groups. The used basic diet contained 17% by weight of casein and 48% by weight of starch in addition to 25% of lipids. Then, an experimental diet (containing 25% of fats) containing 4% of BCAA (its composition is a mixture of Leu, Ile and Val; their weight ratio is […]=1:1:1), Leu or Ile was provided to them. The control group was given an experimental diet wherein casein was increased by 4% from the basic diet instead of the amino acids (Control Group). As for the composition of each experimental diet, the starch content was adjusted so that each calorie per unit weight became the same. On the 17th day of provision of the experimental diet, their blood was collected and their blood glucose was measured to determine the adiponectin concentration in plasma. […] After extracting RNA, adiponectin mRNA was determined. The blood glucose of a mouse was measured by collecting 6 μL of its blood from the caudal vein and using a Fuji […] system (produced by FUJIFILM Medical Co., Ltd.). The adiponectin concentration in plasma was measured by the following method.

CSCC[C@H](N)C(=O)O [Met, methionine]
Concentration of adiponectin in the case of adding one kind of amino acids to Zero medium (3T3-L1 cells): 66 ng/mL
concentration of adiponectin in mediums without the amino acid (3T3-L1 cells): significantly decreased

CC[C@H](C)[C@H](N)C(=O)O [Ile, isoleucine]
adiponectin concentration in plasma as compared with before the start of providing the diet (FIG. 3) (ob/ob mice [1]): tended to increase
production of adiponectin as compared with Zero medium (FIG. 1) (3T3-L1 cells): increase of the production of adiponectin was seen
Concentration of adiponectin in the case of adding one kind of amino acids to Zero medium (3T3-L1 cells): 119 ng/mL
concentration of adiponectin in the culture supernatant in mediums to which the amino acid was added (3T3-L1 cells): increased
amount of adiponectin mRNA in adipose tissues (FIG. 5) (adiponectin mRNA): tended to increase
non-fasting blood glucose as compared with before the start of providing the diet (FIG. 2) (ob/ob mice [2]): significantly decreased

N[C@@H](CS)C(=O)O [Cys, cysteine]
Concentration of adiponectin in the case of adding one kind of amino acids to Zero medium (3T3-L1 cells): 83 ng/mL
concentration of adiponectin in the culture supernatant in mediums to which the amino acid was added (3T3-L1 cells): increased
concentration of adiponectin in mediums without the amino acid (3T3-L1 cells): significantly decreased

NC(=O)CC[C@H](N)C(=O)O [Gln, glutamine]
Concentration of adiponectin in the case of adding one kind of amino acids to Zero medium (3T3-L1 cells): 21 ng/mL

CC(C)[C@H](N)C(=O)O [Val, valine]
production of adiponectin as compared with Zero medium (FIG. 1) (3T3-L1 cells): increase of the production of adiponectin was seen
Concentration of adiponectin in the case of adding one kind of amino acids to Zero medium (3T3-L1 cells): 83 ng/mL
concentration of adiponectin in the culture supernatant in mediums to which the amino acid was added (3T3-L1 cells): increased
concentration of adiponectin in mediums without the amino acid (3T3-L1 cells): significantly decreased

C[C@H](N)C(=O)O [Ala, alanine]
Concentration of adiponectin in the case of adding one kind of amino acids to Zero medium (3T3-L1 cells): 98 ng/mL
concentration of adiponectin in the culture supernatant in mediums to which the amino acid was added (3T3-L1 cells): increased

CC(C)C[C@H](N)C(=O)O [Leu, leucine]
adiponectin concentration in plasma as compared with before the start of providing the diet (FIG. 3) (ob/ob mice [1]): tended to increase
production of adiponectin as compared with Zero medium (FIG. 1) (3T3-L1 cells): increase of the production of adiponectin was seen
amount of adiponectin mRNA in adipose tissues (FIG. 5) (adiponectin mRNA): tended to increase
non-fasting blood glucose as compared with before the start of providing the diet (FIG. 2) (ob/ob mice [2]): significantly decreased
